Values quoted from earlier work, collected in patent publication US11905435B2, “Antimicrobial additive compositions for coatings” (PEGASUS ENVIRONMENTAL RESEARCH AND INVESTMENT GROUP LLC, priority 2020, dated 2024).

Assays:
enteric bacteria = details: Bailey et al. [5]
Pityrosporum ovale = details: Imokawa et al. [6]
[1] = tested on: Saccharomyces cerevisiae yeast; details: Reeder et al. [7]

Row | Molecule | antibacterial effects on enteric bacteria (enteric bacteria) | antifungal effects on Pityrosporum ovale (Pityrosporum ovale) | anti-yeast effect on Saccharomyces cerevisiae [1]
1 | OB(O)O [boric acid] | antibacterial effects | – | –
2 | zinc pyrithione [CP] | – | antifungal effects | anti-yeast effect
